The values below come from US20220354855A1, “TREATMENT FOR GASTROINTESTINAL DISORDERS” (Mayo Foundation for Medical Education and Research, priority 2019, published 2022).

Assay [1] relates to colonic biopsies from healthy, IBS-C, and IBS-D subjects. As to the kind of experiment: Ussing chamber short circuit current (ΔIsc) in response to serotonin (5-HT), colonic biopsies. Conditions: cumulative concentrations of 5-HT applied basolaterally; biopsies from IBS-C patients versus HC; FIG. 3C. Details: species or system human. The text has this: FIGS. 3A-3F: Integrated top-down bottom-up approach provides mechanistic insight into the effect of gut microbiota metabolism on host physiology. FIG. 3A is a series of graphs plotting the abundance of propionate (left), butyrate (center), and acetate (right) as determined by ^1H NMR. The data are shown as mixed linear models correcting for subject in stool samples from healthy, IBS-C, and IBS-D subjects. FIG. 3B is a graph plotting the abundance of acetate in colonic biopsies. FIG. 3C is a graph plotting maximal ΔIsc (Imax) following application of cumulative concentrations of serotonin (5-HT) basolaterally in colonic biopsies from healthy, IBS-C, and IBS-D subjects. FIG. 3D is a graph plotting baseline Isc observed in colonic biopsies from healthy, IBS-C, and IBS-D subjects (P-values are Tukey HSD adjusted from a linear model). FIG. 3E is a pair of graphs plotting the abundance of tryptophan (left) and tryptamine (right) in stool samples from healthy, IBS-C, and IBS-D subjects. […]
Ussing chamber experiments: Colonic mucosal secretory responses were assessed using Ussing chamber setups. […] Short circuit current (Isc) was continuously recorded using Acquire and Analyze software (Physiologic Instruments). ΔIsc values were calculated using Isc measurements before and after application of compounds to the basolateral side and normalized to the tissue area. […]

Assay [2] concerns proximal colon mucosa submucosa preparations from germ free mice. As to the kind of experiment: Ussing chamber short circuit current (Isc) in response to CDCA, colon mucosa-submucosa preparations. Conditions: CDCA applied basolaterally, n=3, Wilcoxon, FIG. 4E. The source says: FIGS. 4A-4E: An integrated metabolomics approach provides mechanistic insight into the effect of gut microbiota metabolism on host physiology. FIG. 4A is a series of graphs plotting the abundance of propionate (left), butyrate (center), and acetate (right) as determined by ^1H NMR using stool samples from healthy, IBS-C, and IBS-D subjects (averaged data per subject, pairwise Mann-Whitney tests). FIG. 4B is a pair of graphs plotting the abundance of tryptophan (left) and tryptamine (right) as determined by LC-MS in stool samples from healthy, IBS-C, and IBS-D subjects (averaged data per subject, pairwise Mann-Whitney tests). FIG. 4C is a series of graphs plotting the abundance of cholic acid (CA, left panel), chenodeoxycholic acid (CDCA, center panel), and deoxycholic acid sulfate (DCA-S, right panel) as determined by ^1H NMR with stool samples from healthy, IBS-C, and IBS-D subjects (mixed linear models correcting for subject). FIG. 4D is a series of graphs plotting the abundance of CA, CDCA, and DCA-S as determined by ^1H NMR using stool samples from healthy, IBS-C, and IBS-D subjects (averaged data per subject, pairwise Mann-Whitney tests). […]
Ussing chamber experiments: Colonic mucosal secretory responses were assessed using Ussing chamber setups. […]

In the case of `NCCc1c[nH]c2ccc(O)cc12` [serotonin (5-HT), serotonin], in assay [1], the “secretory response (maximal ΔIsc, Imax) to serotonin (5-HT)” value was “significantly lower than HC”.

`C[C@H](CCC(=O)O)[C@H]1CC[C@H]2[C@@H]3[C@H](O)C[C@@H]4C[C@H](O)CC[C@]4(C)[C@H]3CC[C@]12C` [CDCA, chenodeoxycholic acid]: the “Isc in response to CDCA (ΔIsc, Imax)” value in assay [2] is reported as “significant increase in Isc”.
